Assay results reported in patent US9145351B2, “Azole derivatives, methods for producing the same, intermediate thereof, agro-horticultural agents” (KUREHA CORPORATION, priority 2009, dated 2015).
Where two headings read alike, the source gives them in different places.

Key:
[1] = tested on: Giberella fujikuroi; assay: Plate medium fungicidal assay, rice bakanae disease G.f (Experimental Example 5); format: cell-based
Procedure: In this Experimental Example, the fungicidal effects of the inventive compounds on various phytopathogenic fungi for plants and hazardous microorganism for industrial materials were examined by the methods described below. Each inventive compound was dissolved in 2 ml of dimethyl sulfoxide. 0.6 ml of this solution was added to 60 nil of a PDA medium (potato dextrose agar medium) at about 60 degrees C., which was mixed thoroughly in a 100-ml conical flask, and poured into a dish, where it was solidified, thereby obtaining a plate medium containing the inventive compound at 50 mg/L and 5 mg/L. On the other hand, a subject microorganism previously cultured on a plate medium was cut out using a cork borer whose diameter was 4 mm, and inoculated to the test compound-containing plate medium described above. […] The growth degree of the microorganism on the test compound-containing plate medium thus observed was compared with the growth degree of the microorganism in the untreated group, and % mycelial growth inhibition was calculated by the following equation. R=100(dc−dt)/dc wherein R=% mycelial extension inhibition, dc=flora diameter in untreated plate, dt=flora diameter in treated plate. The results obtained as described above were evaluated as one of the 5 grades according to the following criteria. […] Rice bakanae disease (Giberella fujikuroi) G.f

[2] = tested on: Trichoderma sp.; assay: Plate medium assay, industrial material deteriorating microorganism, Trichoderma (Experimental Example 5); format: cell-based; details: treatment at 50 mg/l, PDA plate medium, read-out: growth inhibition grade
Procedure: (§1) In this Experimental Example, the fungicidal effects of the inventive compounds on various phytopathogenic fungi for plants and hazardous microorganism for industrial materials were examined by the methods described below. Each inventive compound was dissolved in 2 ml of dimethyl sulfoxide. 0.6 ml of this solution was added to 60 nil of a PDA medium (potato dextrose agar medium) at about 60 degrees C., which was mixed thoroughly in a 100-ml conical flask, and poured into a dish, where it was solidified, thereby obtaining a plate medium containing the inventive compound at 50 mg/L and 5 mg/L. On the other hand, a subject microorganism previously cultured on a plate medium was cut out using a cork borer whose diameter was 4 mm, and inoculated to the test compound-containing plate medium described above. […] The growth degree of the microorganism on the test compound-containing plate medium thus observed was compared with the growth degree of the microorganism in the untreated group, and % mycelial growth inhibition was calculated by the following equation. R=100(dc-dt)/dc wherein R=% mycelial extension inhibition, dc=flora diameter in untreated plate, dt=flora diameter in treated plate. The results obtained as described above were evaluated as one of the 5 grades according to the following criteria.

[3] = tested on: Fusarium oxysporum; assay: Plate medium fungicidal assay, cucumber fusarium wilt F.c (Experimental Example 5); format: cell-based; details: for inhibition at 5 µg/mL / inhibition at 50 µg/mL: Fusarium oxysporum
Procedure: as §1, with “R=100(dc−dt)/dc” for “R=100(dc-dt)/dc”, “criteria. […] Cucumber fusarium wilt (Fusarium oxysporum) F.c” for “criteria.”

[4] = tested on: Cladosporium sp.; assay: Plate medium assay, industrial material deteriorating microorganism, Cladosporium (Experimental Example 5); format: cell-based; details: treatment at 50 mg/l, PDA plate medium, read-out: growth inhibition grade
Procedure: as §1

[5] = tested on: Phaeosphaeria nodorum; assay: Plate medium fungicidal assay, wheat Septoria nodorum blotch P.n (Experimental Example 5); format: cell-based; details: for inhibition at 5 µg/mL / inhibition at 50 µg/mL: Parastagonospora nodorum
Procedure: as §1, with “R=100(dc−dt)/dc” for “R=100(dc-dt)/dc”, “criteria. […] Wheat Septoria nodorum blotch (Phaeosphaeria nodorum) P.n” for “criteria.”

[6] = tested on: Ustilago nuda; assay: Plate medium fungicidal assay, barley loose smut U.n (Experimental Example 5); format: cell-based; details: for inhibition at 5 µg/mL / inhibition at 50 µg/mL: Ustilago nuda
Procedure: as §1, with “R=100(dc−dt)/dc” for “R=100(dc-dt)/dc”, “criteria. […] Barley loose smut (Ustilago nuda) U.n” for “criteria.”

[7] = tested on: Mucor sp.; assay: Plate medium assay, industrial material deteriorating microorganism, Mucor (Experimental Example 5); format: cell-based; details: treatment at 50 mg/l, PDA plate medium, read-out: growth inhibition grade
Procedure: as §1

[8] = tested on: Fusarium graminearum; assay: whole plant or invertebrate; format: in vivo; details: in Triticum aestivum, 168 h, read-out: Protective value
[9] = plate medium containing compound at 5 mg/L, read-out: Growth inhibition grade, G.f
[10] = plate medium containing compound at 50 mg/L, read-out: Growth inhibition grade, G.f
[11] = plate medium containing compound at 5 mg/L, read-out: Growth inhibition grade, F.c
[12] = plate medium containing compound at 50 mg/L, read-out: Growth inhibition grade, F.c
[13] = plate medium containing compound at 5 mg/L, read-out: Growth inhibition grade, P.n
[14] = plate medium containing compound at 50 mg/L, read-out: Growth inhibition grade, P.n
[15] = plate medium containing compound at 5 mg/L, read-out: Growth inhibition grade, U.n
[16] = plate medium containing compound at 50 mg/L, read-out: Growth inhibition grade, U.n

Compound | inhibition at 5 µg/mL [1, 9] | inhibition at 50 µg/mL [1, 10] | inhibition at 50 µg/mL [2] | inhibition at 5 µg/mL [3, 11] | inhibition at 50 µg/mL [3, 12] | inhibition at 50 µg/mL [4] | inhibition at 5 µg/mL [5, 13] | inhibition at 50 µg/mL [5, 14] | inhibition at 5 µg/mL [6, 15] | inhibition at 50 µg/mL [6, 16] | inhibition at 50 µg/mL [7] | pest or weed control at 100 µg/mL [8] | pest or weed control at 500 µg/mL [8] | Growth inhibition grade, G.f ([1]; plate medium, 5 mg/L) | Growth inhibition grade, G.f ([1]; plate medium, 50 mg/L) | Growth inhibition grade, F.c ([3]; plate medium, 5 mg/L) | Growth inhibition grade, F.c ([3]; plate medium, 50 mg/L) | Growth inhibition grade, P.n ([5]; plate medium, 5 mg/L) | Growth inhibition grade, P.n ([5]; plate medium, 50 mg/L) | Growth inhibition grade, U.n ([6]; plate medium, 5 mg/L) | also measured
C[C@]1(CCl)CC[C@@H](Cc2ccc(Cl)cc2)[C@]1(O)Cn1cncn1 (racemic) [Compound I-1, (1RS,2SR,5SR)-5-(4-chlorobenzyl)-2-chloromethyl-2-methyl-1-(1H-1,2,4-triazol-1-ylmethyl)cyclopentanol] | > 80% | > 80% | 60 to 80% | > 80% | > 80% | 60 to 80% | > 80% | > 80% | > 80% | > 80% | 60 to 80% | ≥ 80% | ≥ 90% |  |  |  |  |  |  |  | inhibition at 5 µg/mL ([1]; plate medium, 5 mg/L, read-out: growth inhibition grade G.f): > 80%; inhibition at 50 µg/mL ([1]; plate medium, 50 mg/L, read-out: growth inhibition grade G.f): > 80%; inhibition at 5 µg/mL ([3]; plate medium, 5 mg/L, read-out: growth inhibition grade F.c): > 80%; inhibition at 50 µg/mL ([3]; plate medium, 50 mg/L, read-out: growth inhibition grade F.c): > 80%; inhibition at 5 µg/mL ([5]; plate medium, 5 mg/L, read-out: growth inhibition grade P.n): > 80%; inhibition at 50 µg/mL ([5]; plate medium, 50 mg/L, read-out: growth inhibition grade P.n): > 80%; inhibition at 5 µg/mL ([6]; plate medium, 5 mg/L, read-out: growth inhibition grade U.n): > 80%; inhibition at 50 µg/mL ([6]; plate medium, 50 mg/L, read-out: growth inhibition grade U.n): > 80%
CC(Cl)=C[C@@]1(C)CC[C@@H](Cc2ccc(Cl)cc2)[C@]1(O)Cn1cncn1 (racemic) [Compound I-15, (1RS,2RS,5SR)-5-(4-chlorobenzyl)-2-(2-chloropropenyl)-2-methyl-1-(1H-1,2,4-triazol-1-ylmethyl)cyclopentanol] | > 80% | > 80% | 60 to 80% | > 80% | > 80% | 60 to 80% | > 80% | > 80% | > 80% | > 80% | 60 to 80% |  | ≥ 90% |  |  |  |  |  |  |  | 
C[C@]1(CBr)CC[C@@H](Cc2ccc(Cl)cc2)[C@]1(O)Cn1cncn1 (racemic) [Compound I-25, (1RS,2SR,5SR)-2-bromomethyl-5-(4-chlorobenzyl)-2-methyl-1-(1H-1,2,4-triazol-1-ylmethyl)cyclopentanol] | > 80% | > 80% | 60 to 80% | > 80% | > 80% | 60 to 80% | 60 to 80% | > 80% | 40 to 60% | > 80% | 60 to 80% | ≥ 80% | ≥ 90% |  |  |  |  |  |  |  | 
CC[C@]1(CCl)CC[C@@H](Cc2ccc(Cl)cc2)[C@]1(O)Cn1cncn1 (racemic) [Compound I-36, (1RS,2SR,5SR)-5-(4-chlorobenzyl)-2-chloromethyl-2-ethyl-1-(1H-1,2,4-triazol-1-ylmethyl)cyclopentanol] | > 80% | > 80% | 60 to 80% | > 80% | > 80% | 60 to 80% | > 80% | > 80% | 60 to 80% | > 80% | 60 to 80% | ≥ 80% | ≥ 90% |  |  |  |  |  |  |  | 
O[C@]1(Cn2cncn2)[C@H](Cc2ccc(Cl)cc2)CCC1(CCl)CCl (relative stereo) [Compound I-203, cis-5-(4-chlorobenzyl)-2,2-bis(chloromethyl)-1-(1H-1,2,4-triazol-1-yl)methylcyclopentanol] |  |  |  |  |  |  |  |  |  |  |  |  |  | 5 (% Mycerial growth inhibition of 80% or higher) | 5 (% Mycerial growth inhibition of 80% or higher) | 5 (% Mycerial growth inhibition of 80% or higher) | 5 (% Mycerial growth inhibition of 80% or higher) | 5 (% Mycerial growth inhibition of 80% or higher) | 5 (% Mycerial growth inhibition of 80% or higher) | 5 (% Mycerial growth inhibition of 80% or higher) | Growth inhibition grade, U.n ([6]; plate medium, 50 mg/L): 5 (% Mycerial growth inhibition of 80% or higher)
C[C@]1(CCl)CC[C@H](Cc2cccc(Cl)c2)[C@]1(O)Cn1cncn1 (relative stereo) [Compound I-374] |  |  |  |  |  |  |  |  |  |  |  |  |  | 5 (% Mycerial growth inhibition of 80% or higher) | 5 (% Mycerial growth inhibition of 80% or higher) | 5 (% Mycerial growth inhibition of 80% or higher) | 5 (% Mycerial growth inhibition of 80% or higher) | 5 (% Mycerial growth inhibition of 80% or higher) | 5 (% Mycerial growth inhibition of 80% or higher) | 4 (% Mycerial growth inhibition of less than 80 to 60% or higher) | Growth inhibition grade, U.n ([6]; plate medium, 50 mg/L): 5 (% Mycerial growth inhibition of 80% or higher)
